Data published in US7988972B2, “Immunoreactive peptides from Epstein-Barr virus” (Ortho-Clinical Diagnostics, Inc., priority 1993, dated 2011).

Experiments:
[1] = tested on: peripheral blood lymphocytes (PBL); test: Proliferation assay of peripheral blood lymphocytes (3H-thymidine incorporation); type: cell-based, human; conditions: for proliferation response: PBL from 3 anti-VCA-positive anti-EA-antibody-negative individuals; for 3H-thymidine Incorporation (cpm + S.D.) / S.I. (stimulation index): PBL from anti-VCA-positive, anti-EA-positive donor, 5 days
Protocol: Proliferation assays. T-cell proliferation assays using the native p17 or p50 polypeptide or the synthetic peptides were performed as previously described in detail (Pothen et al., Int. J. Cancer, 49:656-660, 1991). Briefly, peripheral blood lymphocytes (PBLO from sero-positive donors were isolated on FICOLL-HYPAQUE gradients, washed and resuspended in RPMI 1640 media containing 10% heat-inactivated human A^+ serum from a sero-negative donor. Cells (1×10^5 per 0.1 ml) were then added to each well in 96-well, round-bottomed tissue culture plates (Costar, Cambridge, Mass.). The different antigen preparations were added to triplicate wells in 0.1 ml volumes and the plates were incubated at 37° C. for 5 days. ^3H-thymidine (5 Ci per mM) was added at a concentration of 1 μCi per well over the last 4 hours of culture. The cells were then harvested with a multichannel sample harvester and ^3H-thymidine incorporation was determined using a Beckman Model LS 3801 liquid scintillation counter. Stimulation indices for the test antigens were calculated by dividing the average counts per minute (CPMO for the test antigens by the average CPM of the medium control wells.
PBL from asymptomatic EBV-infected individuals were tested for response to any of the three p17 synthetic peptides (Table 1) by a proliferation assay using lymphocytes previously shown to proliferate in the presence of native p17 (Pothen et al., Int. J. Cancer, 49:656-660, 1991). Different concentrations of the synthetic peptides were incubated with the PBL for 5 days and then proliferation was assayed by the incorporation of ^3H-thymidine. The native p17 purified from activated P3HR-1 cells gave a S.I. of 15.8 in this experiment. […] Neither of the other synthetic peptides induced a proliferation response at the concentrations tested.
PBL from 3 anti-VCA-positive anti-EA-antibody-negative individuals were also examined in the proliferation assay with the three synthetic peptides. Again, all 3 PBL preparations responded to the highest concentrations of p17.1 with S.I.'s ranging from 3.5-11. Two of the preparations (FIG. 2A,C) also proliferated in the presence of lower concentrations of antigen with S.I.'s of 3 and 5 respectively. […] These experiments established that T-lymphocytes from EBV-infected individuals, irrespective of the presence of antibody to EA, recognized a dominant epitope on p17.

[2] = tested on: anti-EA antibodies in human sera; test: ELISA, serological reactivity of human sera with p17 synthetic peptides; type: binding; conditions: for share of anti-EA-positive sera that reacted: 87 anti-EA antibody-positive sera (titer>160), 2 μg peptide per well; for No. Positive/No. Tested / No. Positive/No. Tested (%): sera 1:10
Protocol: (§1) ELISA. The ELISA for measuring specific antibodies to p17, p50 or to the synthetic peptides was performed as previously described in detail (Luka et al., J. Immunol. Methods, 67:145-156, 1984). Aliquots of different antigen concentrations were diluted in 0.5M Na2CO3 buffer, pH 9.5, added to wells in polystyrene microtiter plates (Linbro) and the plates incubated overnight at 4° C. Following this incubation period, the plates were washed 5× with Tris-HCl, pH 7.4, containing 0.05% Tween 20, 50 mM NaCl and 100 mg per liter albumin (Sigma) and dried for 20 minutes at room temperature. The plates were screened with different anti-EA-R or EA-D antibody positive human sera and the monoclonal antibody to p17 or p50 to identify the optimal concentration of antigen to be used in the serological studies. Alkaline-phosphatase-labelled goat anti-human IgG (Sigma) or goat anti-mouse IgG (Sigma) was used as the indicator system.
(§2) For the testing of human sera for antibodies to native p17, p50 or to the synthetic peptides, sera were diluted 1:10 in ELISA buffer, added in 0.1 ml volumes to wells coated with optimal concentrations of antigen and the plates were incubated for 60 minutes at room temperature. After 4 washes with ELISA buffer, 100 μl of alkaline phosphatase-labelled goat anti-human IgG in ELISA buffer were added to each well and the plates were incubated at room temperature for 1 hour. Following four more washes in buffer, the enzyme reaction was performed by dissolving 1 mg per ml of Sigma alkaline phosphatase substrate in 1M diethanolamine buffer, pH 10.4, containing 1 mM MgCl2 and 0.1 mM ZnCl2, and 100 μl of the mixture was then added to each well. The reaction was allowed to proceed for 30 minutes at 37° C. and then the plates were screened directly with a microplate reader, TITERTEK MULTISKAN MC (Flow), at 420 nm. Readings above 0.1 which was 2× the background noted with antibody-negative sera were considered positive reactions.
Studies were designed to determine the serological reactivity with the p17 synthetic epitopes. For this purpose, 87 anti-EA antibody-positive sera (titer>160) were tested in the ELISA against optimal pre-determined concentrations (2 μg per well) of the p17 synthetic peptides. The sera were obtained from 28 patients with African Burkift's lymphoma (ABL) collected during the Ghanian Burkitt Tumor Project, and from 28 North American patients with intermediate large cell, or high grade non-Hodgkin's lymphoma (NANHL). The donors included both HIV-positive and HIV-negative individuals. In addition, sera from 31 North American nasopharyngeal carcinoma (NANPC) patients were examined in this study (Pearson, G. R., et al., Cancer, 51:260-268, 1983). To validate the EA specificity of the serological reactions, the results with these sera were compared with results with 23 VCA and EA antibody-negative sera and 30 VCA-antibody-positive, EA-antibody negative sera. In contrast to the T-cell proliferation results, all three synthetic peptides reacted with the EA antibody-positive sera to varying degrees with p17.1 again being the dominant epitope. Approximately 60% of the anti-EA-positive sera reacted with p17.1, 48% with p17.2 and 23% with p17.3.
Seventy-one percent of the sera from ABL patients and 93% of the sera from patients with NANHL reacted with p17.1 as opposed to 23% of the sera from North American patients with NPC.

[3] = tested on: EA reactive antibody (IgG) in infectious mononucleosis (IM) sera; test: ELISA, EA peptides with EBV infectious mononucleosis sera; type: binding, human; conditions: EA positive EBV IM acute serum
Protocol: as §1, §2
When the entire 50.10 peptide was tested with 1M sera, 24/32 or 75% of the sera contained EA-D reactive antibody (IgG) (Table 4).
Serological reactivity of EA peptides p17.1 and p50.1 which contained additional amino acids on their amino and carboxy termini was tested on EBV IM acute sera which was EA positive. The ELISA results shown in Table 5 indicate that the additional amino acids improved reactivity for both EA peptides.
Immunofluorescence assays (IFA) were performed as described by Henle, et al. (Int. J. Cancer, 8:272-282, 1971). Western blot analysis was done by methods commonly used in the art (See for example, Coligan, et al., Current Protocols in Immunology, Wiley Interscience, 1991, Unit 12). Samples of EBV-infected cell lysates (P3HR-1) were tested with human whole antiserum from positive humans (Pearson, et al., Virology, 160:151-161, 1987). A comparison was made between EA serology by IFA, using the EA-D 50.1 peptide antisera, and ELISA serology using 50.1 peptide (see Example 2).

[4] = serum donors: Burkitt's lymphoma (African), EA titers >160
[5] = serum donors: Lymphoma (total), EA titers >160
[6] = serum donors: Nasopharyngeal carcinoma (North American), EA titers >160
[7] = serum donors: Non-Hodgkin's lymphoma (North American), EA titers >160
[8] = serum donors: Normal (VCA + EA-)
[9] = serum donors: Normal (VCA − EA-)

Sequence | proliferation response [1] | 3H-thymidine Incorporation (cpm + S.D.) ([1]; 3.12 μg/ml) [cpm] | S.I. (stimulation index) ([1]; 3.12 μg/ml) | 3H-thymidine Incorporation (cpm + S.D.) ([1]; 12.5 μg/ml) [cpm] | S.I. (stimulation index) ([1]; 12.5 μg/ml) | 3H-thymidine Incorporation (cpm + S.D.) ([1]; 50 μg/ml) [cpm] | share of anti-EA-positive sera that reacted [2] [%] | No. Positive/No. Tested [2, 4] | No. Positive/No. Tested (%) [2, 4] [%] | No. Positive/No. Tested [2, 5] | No. Positive/No. Tested (%) [2, 5] [%] | No. Positive/No. Tested [2, 6] | No. Positive/No. Tested (%) [2, 6] [%] | No. Positive/No. Tested [2, 7] | No. Positive/No. Tested (%) [2, 7] [%] | No. Positive/No. Tested [2, 8] | No. Positive/No. Tested (%) [2, 8] [%] | No. Positive/No. Tested [2, 9] | ELISA result, peptides with and without extensions ([3]; sample no. 2241) | ELISA result, peptides with and without extensions ([3]; sample no. 12498) | other results
HQQGGWSTLIEDNIP [p17.3, synthetic peptide from 17 Kd early antigen (EA-R) region of EBV] | None of these PBL preparations proliferated | 194 ± 65 | 1.3 | 132 ± 3 | 0 | 190 ± 47 | 23 | 9/28 | 32 | 16/56 | 29 | 4/31 | 13 | 7/28 | 25 | 0/30 | 0 | 0/23 | – | – | –
GMLEASEGLDGWIHQ [p17.2, synthetic peptide from 17 Kd early antigen (EA-R) region of EBV] | None of these PBL preparations proliferated | 157 ± 23 | 1.1 | 278 ± 58 | 1.9 | 277 ± 175 | 48 | 13/28 | 46 | 36/56 | 64 | 6/31 | 19 | 23/28 | 82 | 0/30 | 0 | 0/23 | – | – | –
ARQKQKHPKKVKQAFNPLI [50.1e, extension of p50.10 by the addition of several amino and carboxy-terminal amino acids] | – | – | – | – | – | – | – | – | – | – | – | – | – | – | – | – | – | – | >2 | 0.946 | ELISA result, peptides with and without extensions ([3]; sample no. 12836): 1.718
QNSETFTETWNRFITHTEHVD [17.1e, extension of p17.1 by the addition of several amino and carboxy-terminal amino acids] | – | – | – | – | – | – | – | – | – | – | – | – | – | – | – | – | – | – | 1.277 | 0.502 | ELISA result, peptides with and without extensions ([3]; sample no. 12836): 1.257
